Assay results taken from article PMC7052193, “Nanobody-enabled monitoring of kappa opioid receptor states” (Nature Communications, 2020).
Values joined by “and” are separate entries in the source; they are usually repeats but may differ in a detail not shown here. Equal entries are not always repeated. Where two headings read alike, the source gives them in different places.

Experiments:
5-HT2AR [1] = type: cell-based, human; conditions: 5-HT2AR-KOR, Log [Drug]
5-HT2AR [2] = type: cell-based, human; conditions: 5-HT2AR-KOR, Log [5-HT]
5-HT4R = type: cell-based, human; conditions: Gαs, 5-HT4R wt
HRH2 [3] = target: HRH2 (Homo sapiens, UniProt P25021); conditions: Log [Histamine]
Sequence of HRH2 (Homo sapiens, UniProt P25021) (P25021 whole entry): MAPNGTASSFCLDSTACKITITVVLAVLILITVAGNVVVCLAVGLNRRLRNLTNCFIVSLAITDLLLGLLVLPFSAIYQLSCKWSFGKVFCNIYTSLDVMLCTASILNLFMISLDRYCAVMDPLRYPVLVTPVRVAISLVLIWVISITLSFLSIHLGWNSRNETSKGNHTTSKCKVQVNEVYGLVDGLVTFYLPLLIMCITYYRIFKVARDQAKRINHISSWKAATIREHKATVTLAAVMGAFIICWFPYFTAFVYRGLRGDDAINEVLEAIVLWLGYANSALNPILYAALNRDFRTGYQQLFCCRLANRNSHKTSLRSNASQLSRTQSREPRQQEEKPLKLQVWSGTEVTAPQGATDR

HRH2 [4] = conditions: Log [Histamine]
HRH2 [5] = conditions: Gαs, HRH2 wt
kappa receptor = target: kappa receptor; set-up: method as in Thomas JB et al., 2001; conditions: previously reported; ref Thomas JB et al., 2001; read-out: Ki, kappa receptor binding assay; cited from earlier work
KOR [6] = target: T1, KOR (Homo sapiens, UniProt P41145); assay: cAMP inhibition assay (GloSensor); type: cell-based
T1 sequence (P41145 whole entry): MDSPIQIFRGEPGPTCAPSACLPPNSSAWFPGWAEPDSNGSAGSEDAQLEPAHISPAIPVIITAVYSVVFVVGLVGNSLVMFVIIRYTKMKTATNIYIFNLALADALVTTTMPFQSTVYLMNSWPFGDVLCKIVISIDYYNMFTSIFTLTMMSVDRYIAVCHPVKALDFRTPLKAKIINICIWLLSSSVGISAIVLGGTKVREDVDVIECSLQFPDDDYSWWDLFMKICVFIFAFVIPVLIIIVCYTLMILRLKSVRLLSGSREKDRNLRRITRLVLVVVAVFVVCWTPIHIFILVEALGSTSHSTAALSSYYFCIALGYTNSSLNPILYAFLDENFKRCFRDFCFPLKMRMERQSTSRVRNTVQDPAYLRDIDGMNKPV

human wild-type KOR = human wild-type KOR (Homo sapiens, UniProt P41145); assay: [3H]-JDTic association and dissociation assays; type: binding
Sequence of human wild-type KOR (P41145 whole entry): as above
Procedure: Radioligand dissociation and association assays were performed in parallel using the same concentrations of radioligand, membrane preparations and binding buffer (50 mM Tris, 10 mM MgCl2, 0.1 mM EDTA, 0.1% BSA, pH 7.4).
Time points spanned 1 min to 6 h, depending on experimental conditions and radioligand. The association (Kon) and dissociation (Koff) values were calculated using the Prism model:
Association kinetics to obtain kon5 Y=Ymax*(1−e^−kob*X).
Dissociation—one phase exponential decay to obtain koff6 Y=YO−NS*e^−K*X,

GPR151 [7] = target: T2, GPR151 (Homo sapiens, UniProt Q8TDV0); type: cell-based; conditions: GPR151 and Nb6
T2 construct: expressed in transfected cells; host or cells: HEK 293T
T2 sequence (Q8TDV0 1-419): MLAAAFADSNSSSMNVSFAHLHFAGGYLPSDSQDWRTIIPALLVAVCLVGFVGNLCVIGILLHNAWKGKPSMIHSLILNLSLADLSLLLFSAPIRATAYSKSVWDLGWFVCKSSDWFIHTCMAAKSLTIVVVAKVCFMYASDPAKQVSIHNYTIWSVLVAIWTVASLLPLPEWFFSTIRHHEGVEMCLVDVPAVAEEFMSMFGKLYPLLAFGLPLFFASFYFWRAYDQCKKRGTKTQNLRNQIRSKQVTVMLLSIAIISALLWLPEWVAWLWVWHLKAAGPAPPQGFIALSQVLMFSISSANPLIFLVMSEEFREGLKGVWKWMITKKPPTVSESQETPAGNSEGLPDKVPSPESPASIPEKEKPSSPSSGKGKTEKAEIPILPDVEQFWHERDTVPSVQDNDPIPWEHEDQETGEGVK

GPR151 [8] = type: cell-based; conditions: GPR151-KOR and Nb6
5-HT2AR [9] = target: T3, 5-HT2AR (Homo sapiens, UniProt P28223); type: cell-based; conditions: wild-type 5-HT2AR
T3 construct: expressed in transfected cells; host or cells: HEK 293T
T3 sequence (P28223 whole entry): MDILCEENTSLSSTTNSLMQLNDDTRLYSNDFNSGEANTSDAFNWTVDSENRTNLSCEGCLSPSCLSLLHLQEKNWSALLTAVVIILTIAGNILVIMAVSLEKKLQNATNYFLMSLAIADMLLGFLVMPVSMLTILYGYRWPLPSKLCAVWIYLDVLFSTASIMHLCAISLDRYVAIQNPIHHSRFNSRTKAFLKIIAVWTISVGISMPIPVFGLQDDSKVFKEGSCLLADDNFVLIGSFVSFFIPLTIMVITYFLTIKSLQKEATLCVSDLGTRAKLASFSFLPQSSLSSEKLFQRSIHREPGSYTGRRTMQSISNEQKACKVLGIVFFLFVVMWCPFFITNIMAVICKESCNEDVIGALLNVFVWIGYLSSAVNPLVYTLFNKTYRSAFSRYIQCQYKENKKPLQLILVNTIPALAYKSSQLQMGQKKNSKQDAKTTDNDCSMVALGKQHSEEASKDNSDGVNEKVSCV

GPR149 = type: cell-based; conditions: GPR149-KOR and Nb6
[10] = target: T4, human KOR containing C-terminal Renilla luciferase (RLuc8) (human, UniProt P41145); assay: FRET or BRET; kinetic BRET in HEK 293T cells co-expressing KOR-Rluc and Nb6-mVenus or Nb39-mVenus; 10 µM Sal A, then 10 µM JDTic added at the indicated times; t1/2 from one phase exponential decay; conditions: partners not purified
T4 construct: kappa opioid receptor, human, wild type; also called KOR-Rluc; kappa opioid receptor; source: HEK 293T, co-transfected, in live cells; not shown: RLuc8, C-terminal, kept
T4 sequence (P41145 whole entry): as the sequence (P41145 whole entry) above

human KOR [11] = target: human KOR (Homo sapiens, UniProt P41145, L253A); assay: BRET assay, KOR-Rluc and Nb6-mVenus: Nb6 binding / agonist-induced dissociation; type: cell-based
human KOR [12] = target: T5, human KOR (Homo sapiens, UniProt P41145, R270M); assay: as above; type: cell-based
T5 construct: expressed in transfected cells; host or cells: HEK 293T
T5 sequence (P41145 whole entry R270M): as the sequence (P41145 whole entry) above, with R270M counted along it

human KOR [13] = target: human KOR (Homo sapiens, UniProt P41145, R274A); assay: as above; type: cell-based
human KOR [14] = target: T6, human KOR (Homo sapiens, UniProt P41145, R257A); assay: as above; type: cell-based
T6 construct: expressed in transfected cells; host or cells: HEK 293T
T6 sequence (P41145 whole entry R257A): as the sequence (P41145 whole entry) above, with R257A counted along it

human KOR [15] = target: human KOR (Homo sapiens, UniProt P41145, R270A); assay: as above; type: cell-based
KOR [16] = target: T1, KOR; assay: as above; type: cell-based
human KOR [17] = target: T7, human KOR (Homo sapiens, UniProt P41145, R271A); assay: as above; type: cell-based
T7 construct: expressed in transfected cells; host or cells: HEK 293T
T7 sequence (P41145 whole entry R271A): as the sequence (P41145 whole entry) above, with R271A counted along it

human KOR [18] = target: T8, human KOR (Homo sapiens, UniProt P41145, D266L); assay: as above; type: cell-based
T8 construct: expressed in transfected cells; host or cells: HEK 293T
T8 sequence (P41145 whole entry D266L): as the sequence (P41145 whole entry) above, with D266L counted along it

human KOR [19] = target: T9, human KOR (Homo sapiens, UniProt P41145, R263A); assay: as above; type: cell-based
T9 construct: expressed in transfected cells; host or cells: HEK 293T
T9 sequence (P41145 whole entry R263A): as the sequence (P41145 whole entry) above, with R263A counted along it

human KOR [20] = target: human KOR (Homo sapiens, UniProt P41145, D266A); assay: as above; type: cell-based
GPR111 = assay: BRET assay GPR111 / GPR111-KOR and Nb6, basal state; type: cell-based
ETA = target: T10, ETA (Homo sapiens, UniProt P25101); type: cell-based; conditions: wild-type ETA
T10 construct: expressed in transfected cells; host or cells: HEK 293T
T10 sequence (P25101 21-427): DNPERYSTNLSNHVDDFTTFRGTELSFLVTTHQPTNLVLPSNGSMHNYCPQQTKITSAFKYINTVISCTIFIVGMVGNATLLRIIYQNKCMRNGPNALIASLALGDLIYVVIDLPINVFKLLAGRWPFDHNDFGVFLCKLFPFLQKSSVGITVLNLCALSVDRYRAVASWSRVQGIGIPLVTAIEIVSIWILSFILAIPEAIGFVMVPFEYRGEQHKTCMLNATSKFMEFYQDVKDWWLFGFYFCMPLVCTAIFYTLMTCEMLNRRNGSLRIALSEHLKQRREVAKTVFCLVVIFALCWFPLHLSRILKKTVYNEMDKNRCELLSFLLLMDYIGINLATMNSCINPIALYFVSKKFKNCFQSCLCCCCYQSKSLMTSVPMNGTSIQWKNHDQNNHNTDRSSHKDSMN

[21] = read-out: EC50, G protein activation

## NCCc1c[nH]c2ccc(O)cc12 [5-HT]
5-HT2AR [1]; M = -5
  Net BRET G protein activation, source data Figure 5c: 4.77 and 5.378 and 5.642
5-HT2AR [1]; M = -7
  Net BRET G protein activation, source data Figure 5c: 5.149 and 9.509 and 8.117
5-HT2AR [1]; M = -8
  Net BRET G protein activation, source data Figure 5c: 64.908 and 45.488 and 55.524
5-HT2AR [1]; M = -9
  Net BRET G protein activation, source data Figure 5c: 89.3557 and 61.3025 and 75.4781
5-HT2AR [1]; M = -10
  Net BRET G protein activation, source data Figure 5c: 101.409 and 99.4572 and 101.001
5-HT2AR [1]; M = -11
  Net BRET G protein activation, source data Figure 5c: 93.2037 and 102.876 and 98.9921
5-HT2AR [1]; M = -12
  Net BRET G protein activation, source data Figure 5c: 99.8736 and 92.5765 and 96.7631
5-HT2AR [2]; M = -4
  Net BRET receptor and Nb6, source data Figure 5b: 4.555 and 4.236 and 2.584
5-HT2AR [2]; M = -6
  Net BRET receptor and Nb6, source data Figure 5b: 27.0627 and 18.3518 and 18.7135
5-HT2AR [2]; M = -7
  Net BRET receptor and Nb6, source data Figure 5b: 54.7274 and 50.7842 and 46.0256
5-HT2AR [2]; M = -8
  Net BRET receptor and Nb6, source data Figure 5b: 79.692 and 81.7337 and 74.4168
5-HT2AR [2]; M = -9
  Net BRET receptor and Nb6, source data Figure 5b: 96.2676 and 98.9652 and 90.7989
5-HT2AR [2]; M = -10
  Net BRET receptor and Nb6, source data Figure 5b: 102.206 and 99.7037 and 92.1127
5-HT2AR [2]; M = -11
  Net BRET receptor and Nb6, source data Figure 5b: 99.4094 and 102.177 and 98.4133
5-HT4R
  pEC50 ± SEM, G protein activation: 8.55 ± 0.13
5-HT4R; [21]
  EC50: 2.85 nM

## NCCc1c[nH]cn1 [Histamine]
HRH2 [3]; M -4
  HRH2 wt (Figure S10): 0.035 and 0.037 and 0.032
HRH2 [3]; M -5
  HRH2 wt (Figure S10): 0.04 and 0.037 and 0.043
HRH2 [3]; M -6
  HRH2 wt (Figure S10): 0.037 and 0.041 and 0.043
HRH2 [3]; M -7
  HRH2 wt (Figure S10): 0.041 and 0.036 and 0.042
HRH2 [3]; M -8
  HRH2 wt (Figure S10): 0.038 and 0.039
HRH2 [3]; M -9
  HRH2 wt (Figure S10): 0.037 and 0.039 and 0.042
HRH2 [3]; M -10
  HRH2 wt (Figure S10): 0.036 and 0.04 and 0.031
HRH2 [3]; M -11
  HRH2 wt (Figure S10): 0.029 and 0.038 and 0.037
HRH2 [4]; M -4
  HRH2-KOR (Figure S10): 5.219 and 6.229 and 8.754
HRH2 [4]; M -8
  HRH2-KOR (Figure S10): 49.1583 and 70.3704
HRH2 [4]; M -9
  HRH2-KOR (Figure S10): 71.8855 and 67.8451 and 91.0774
HRH2 [4]; M -10
  HRH2-KOR (Figure S10): 90.0673 and 96.633 and 108.754
HRH2 [4]; M -11
  HRH2-KOR (Figure S10): 95.6229 and 98.6532 and 105.724
HRH2 [5]
  pEC50 ± SEM, G protein activation: 7.64 ± 0.10
HRH2 [5]; [21]
  EC50: 23.2 nM

## CC(C)[C@@H](CN1CC[C@@](C)(c2cccc(O)c2)[C@@H](C)C1)NC(=O)[C@H]1Cc2ccc(O)cc2CN1 [JDTic, (3R)-7-hydroxy-N-((1S)-1-[[(3R,4R)-4-(3-hydroxyphenyl)-3,4-dimethyl-1-piperidinyl]methyl]-2-methylpropyl)-1,2,3,4-tetrahydro-3-isoquinolinecarboxamide]
Kappa receptor
  Ki: 0.3 nM
KOR [6]
  activity at KOR, Gi-mediated inhibition of cAMP production: potent inverse agonist
Human wild-type KOR
  change of binding affinity (Ki) or equilibrium constant (Kd) with KOR in the presence of Nb6 or Nb39: no significant changes
  t1/2 increase, KOR preincubated with Nb6 compared to untreated KOR: ~ 2 fold
Human wild-type KOR; KOR + Nb6
  BMAX ± SEM: 468 ± 54 CPM
Human wild-type KOR; KOR + Nb39
  BMAX ± SEM: 423 ± 59 CPM
Human wild-type KOR; KOR wt
  BMAX ± SEM: 412 ± 46 CPM

B1: Nb6-mVenus (VHH)
VHH: QVQLQESGGGLVQAGESLRLSCAASGTIFRLYDMGWYRRVSGNQRELVASITSGGSTKYGDSVKGRFTISRDNAKNTVYLQMSSLKPEDTAVYYCNAEYRTGIWEELLDGWGQGTQVTVSS
notes: as the chain of m2, nanobody chain of PDB 6VI4; source: HEK 293T, co-transfected, in live cells; not shown: mVenus, C-terminal, kept
GPR151 [7]
  BRET receptor and Nb6 in basal state, source data Figure 5e: 4.933 and 5.929 and 5.0734 and 5.659
GPR151 [8]
  BRET receptor and Nb6 in basal state, source data Figure 5e: 96.9506 and 102.894 and 103.581 and 99.837
5-HT2AR [9]
  interaction with Nb6 in the BRET assay: did not display measurable interaction
GPR149
  BRET receptor and Nb6 in basal state, source data Figure 5e: 100.397 and 94.0625 and 97.7156 and 109.725
[10]
  t1/2 of the decrease in Nb6-KOR BRET after the agonist Sal A: 0.833 ± 0.167 min
  t1/2 of the increase of the BRET ratio after JDTic (following Sal A): 1.25 ± 0.2 min
Human KOR [11]
  Net BRET, KOR mutations with Nb6, source data Figure 3b: 1.189 and 1.193 and 1.2037 and 1.27 and 1.206 and 1.301
Human KOR [12]
  Net BRET, KOR mutations with Nb6, source data Figure 3b: 0.05686 and 0.05346 and 0.04737 and 0.04878 and 0.05049 and 0.05323
Human KOR [13]
  Net BRET, KOR mutations with Nb6, source data Figure 3b: 1.098 and 1.114 and 1.1115 and 1.116 and 1.123 and 1.128
Human KOR [14]
  Net BRET, KOR mutations with Nb6, source data Figure 3b: 1.007 and 0.9978 and 1.013 and 1.028 and 1.043 and 1.085
Human KOR [15]
  Net BRET, KOR mutations with Nb6, source data Figure 3b: 0.07102 and 0.06841 and 0.07532 and 0.07378 and 0.08027 and 0.09204
KOR [16]
  Net BRET, KOR mutations with Nb6, source data Figure 3b: 1.21 and 1.208 and 1.235 and 1.249 and 1.256 and 1.272
Human KOR [17]
  Net BRET, KOR mutations with Nb6, source data Figure 3b: 1.2246 and 1.2 and 1.237 and 1.199 and 1.227 and 1.2457
Human KOR [18]
  Net BRET, KOR mutations with Nb6, source data Figure 3b: 0.05761 and 0.05183 and 0.0517 and 0.0557 and 0.08302 and 0.08918
Human KOR [19]
  Net BRET, KOR mutations with Nb6, source data Figure 3b: 0.9862 and 0.9845 and 1.038 and 1.045 and 1.021 and 1.043
Human KOR [20]
  Net BRET, KOR mutations with Nb6, source data Figure 3b: 0.1429 and 0.1064 and 0.08886 and 0.09293
GPR111
  BRET receptor and Nb6 in basal state, source data Figure 5e: 96.3553 and 106.675 and 85.5388 and 88.3471
ETA
  interaction with Nb6 in the BRET assay: did not display measurable interaction
